Laboratory results as given in patent publication US20110117081A1, “FUNCTIONALIZED PYRROLIDINES AND USE THEREOF AS IAP INHIBITORS” (priority 2008, published 2011).

test system: Ovarian adenocarcinoma SKOV3 cells; test: SKOV3 cell viability assay (MTT); assay type: cell-based; details: Homo sapiens, SK-OV-3, 72 hours
Method: Ovarian adenocarcinoma SKOV3 cells (ATCC# HTB-77) were cultured as monolayers in McCoy's 5a medium (HyClone) supplemented with 2.2 g/L sodium bicarbonate (Gibco), 10% FBS (HyClone) and 1% penicillin/streptomycin (HyClone). Cells were seeded in tissue culture-treated 96 well plates at 5000 cells/well in 150 ul of media. After 24 hours, triplicate wells of cells were treated with various concentrations of compound (0.01 to 10000 nM) diluted in 50 ul of culture media. Cells were incubated at 37° C. (5% CO2) in the presence of compound for 72 hours. Metabolic viability of remaining cells was assessed by MTT (thiazolyl blue tetrazolium bromide, Sigma) assay. 20 ul of MTT reagent (10 mg/ml) was added per well and plates were incubated for 4 hours at 37° C. (5% CO2). The supernatant was then removed from the plate. The converted MTT product was solubilized with 100 uL of isopropanol and the absorbance was read at 570 nm using a Tecan spectrophotometer.
(§1) The percentage viability of compound-treated cells was expressed as a fraction of the absorbance/luminescence signal obtained from non-treated cells. EC50 values (corresponding to 50% cell survival in the presence of compound as compared to untreated controls) were calculated from MTT survival curves (HCT116 and SKOV3) using BioAssay software (CambridgeSoft) and from Cell Titer-Glo survival curves (synovioycte and Jurkat cells) using GraphPad Prism (Graph Pad Software Inc.). In the below chart, EC50 values are summarized as follows: a=EC50 of less than 10 nM; b=EC50 of 10-100 nM; and c=EC50 of greater than 100 nM.

Row | EC50 [nM] | Structure (SMILES)
1 | 10 to 100 | CN[C@@H](C)C(=O)N[C@H](C(=O)N1C[C@@H](NC(=O)C2CCC(C(=O)N[C@H]3C[C@@H](C(=O)NC4c5ccccc5-c5ccccc54)N(C(=O)[C@@H](NC(=O)[C@H](C)NC)C4CCCCC4)C3)CC2)C[C@H]1C(=O)NC1c2ccccc2-c2ccccc21)C1CCCCC1 (stereo partly shown) [Compound 2]
2 | < 10 | CN[C@@H](C)C(=O)N[C@H](C(=O)N1C[C@@H](NC(=O)C2CCC(C(=O)N[C@H]3C[C@@H](C(=O)N[C@@H]4CCCc5ccccc54)N(C(=O)[C@@H](NC(=O)[C@H](C)NC)C4CCCCC4)C3)CC2)C[C@H]1C(=O)N[C@@H]1CCCc2ccccc21)C1CCCCC1 (stereo partly shown) [Compound 4]

test system: Colorectal carcinoma HCT116 cells; test: HCT116 + ETR1 cell viability assay (MTT); assay type: cell-based; details: with ETR1 (40 ng/ml), 72 hrs
Method: Colorectal carcinoma HCT116 cells (ATCC# CCL-247) were cultured as monolayers in 96 well plates at a density of 2000 cells per well in 100 ul of McCoy's 5a medium (HyClone) supplemented with 2.2 g/L sodium bicarbonate (Gibco), 10% FBS (HyClone) and 1% penecillin/streptomycin (HyClone) for 24 hours. Triplicate wells of cells were treated for 72 hrs at 37° C. (5% CO2) with 50 ul of HGS agonistic Trail receptor antibody, ETR1 (40 ng/ml) in combination with 50 ul of diluted compound (0.01 to 10000 nM). Metabolic viability of remaining cells was assessed by MTT assay.
as §1

Row | Structure (SMILES) | EC50 [nM]
3 | CN[C@@H](C)C(=O)N[C@H](C(=O)N1C[C@@H](NC(=O)C2CCC(C(=O)N[C@H]3C[C@@H](C(=O)NC4c5ccccc5-c5ccccc54)N(C(=O)[C@@H](NC(=O)[C@H](C)NC)C4CCCCC4)C3)CC2)C[C@H]1C(=O)NC1c2ccccc2-c2ccccc21)C1CCCCC1 (stereo partly shown) [Compound 2] | < 10
4 | CN[C@@H](C)C(=O)N[C@H](C(=O)N1C[C@@H](NC(=O)C2CCC(C(=O)N[C@H]3C[C@@H](C(=O)N[C@@H]4CCCc5ccccc54)N(C(=O)[C@@H](NC(=O)[C@H](C)NC)C4CCCCC4)C3)CC2)C[C@H]1C(=O)N[C@@H]1CCCc2ccccc21)C1CCCCC1 (stereo partly shown) [Compound 4] | < 10
5 | CN[C@@H](C)C(=O)N[C@H](C(=O)N1C[C@@H](NC(=O)c2ccc(C(=O)N[C@H]3C[C@@H](C(=O)N[C@@H]4CCCc5ccc(F)cc54)N(C(=O)[C@@H](NC(=O)[C@H](C)NC)C4CCCCC4)C3)cc2)C[C@H]1C(=O)N[C@@H]1CCCc2ccc(F)cc21)C1CCCCC1 [Compound 33] | < 10
6 | CN[C@@H](C)C(=O)N[C@H](C(=O)N1C[C@@H](NC(=O)c2ccc(C(=O)N[C@H]3C[C@@H](C(=O)N[C@H](C)c4ccc(OC)cc4)N(C(=O)[C@@H](NC(=O)[C@H](C)NC)C4CCCCC4)C3)cc2)C[C@H]1C(=O)N[C@H](C)c1ccc(OC)cc1)C1CCCCC1 [Compound 34] | < 10
7 | CN[C@@H](C)C(=O)N[C@H](C(=O)N1C[C@@H](NC(=O)c2ccc(C(=O)N[C@H]3C[C@@H](C(=O)N4CCc5ccccc5C4)N(C(=O)[C@@H](NC(=O)[C@H](C)NC)C4CCCCC4)C3)cc2)C[C@H]1C(=O)N1CCc2ccccc2C1)C1CCCCC1 [Compound 35] | 10 to 100
8 | CN[C@@H](C)C(=O)N[C@H](C(=O)N1C[C@@H](NC(=O)c2ccc(C(=O)N[C@H]3C[C@@H](C(=O)N[C@@H]4CCOc5cc(F)ccc54)N(C(=O)[C@@H](NC(=O)[C@H](C)NC)C4CCCCC4)C3)cc2)C[C@H]1C(=O)N[C@@H]1CCOc2cc(F)ccc21)C1CCCCC1 [Compound 36] | < 10
9 | CN[C@@H](C)C(=O)N[C@H](C(=O)N1C[C@@H](NC(=O)c2ccc(C(=O)N[C@H]3C[C@@H](C(=O)NC(C)(C)c4ccccc4)N(C(=O)[C@@H](NC(=O)[C@H](C)NC)C4CCCCC4)C3)cc2)C[C@H]1C(=O)NC(C)(C)c1ccccc1)C1CCCCC1 [Compound 37] | < 10
10 | CN[C@@H](C)C(=O)N[C@H](C(=O)N1C[C@@H](NC(=O)c2ccc(C(=O)N[C@H]3C[C@@H](C(=O)NCc4ccc(F)cc4)N(C(=O)[C@@H](NC(=O)[C@H](C)NC)C4CCCCC4)C3)cc2)C[C@H]1C(=O)NCc1ccc(F)cc1)C1CCCCC1 [Compound 38] | < 10
11 | CN[C@@H](C)C(=O)N[C@H](C(=O)N1C[C@@H](NC(=O)c2ccc(C(=O)N[C@H]3C[C@@H](C(=O)N4CC[C@H](c5ccccc5)C4)N(C(=O)[C@@H](NC(=O)[C@H](C)NC)C4CCCCC4)C3)cc2)C[C@H]1C(=O)N1CC[C@H](c2ccccc2)C1)C1CCCCC1 [Compound 39] | 10 to 100
12 | CN[C@@H](C)C(=O)N[C@H](C(=O)N1C[C@@H](NC(=O)c2ccc(C(=O)N[C@H]3C[C@@H](C(=O)N[C@@H]4CCCc5cc(F)ccc54)N(C(=O)[C@@H](NC(=O)[C@H](C)NC)C4CCCCC4)C3)cc2)C[C@H]1C(=O)N[C@@H]1CCCc2cc(F)ccc21)C1CCCCC1 [Compound 40] | < 10
13 | CN[C@@H](C)C(=O)N[C@H](C(=O)N1C[C@@H](NC(=O)c2ccc(C(=O)N[C@H]3C[C@@H](C(=O)N[C@H](C)c4ccc(F)cc4)N(C(=O)[C@@H](NC(=O)[C@H](C)NC)C4CCOCC4)C3)cc2)C[C@H]1C(=O)N[C@H](C)c1ccc(F)cc1)C1CCOCC1 [Compound 42] | 10 to 100
14 | CN[C@@H](C)C(=O)N[C@H](C(=O)N1C[C@@H](NC(=O)c2ccc(C(=O)N[C@H]3C[C@@H](C(=O)N[C@@H]4CCCc5ccccc54)N(C(=O)[C@@H](NC(=O)[C@H](C)NC)C4CCCC4)C3)cc2)C[C@H]1C(=O)N[C@@H]1CCCc2ccccc21)C1CCCC1 [Compound 43] | < 10
15 | CN[C@@H](C)C(=O)N[C@H](C(=O)N1C[C@@H](NC(=O)c2ccc(C(=O)N[C@H]3C[C@@H](C(=O)N[C@@H]4CCCc5ccccc54)N(C(=O)[C@@H](NC(=O)[C@H](C)NC)C4CCC4)C3)cc2)C[C@H]1C(=O)N[C@@H]1CCCc2ccccc21)C1CCC1 [Compound 44] | < 10
16 | CN[C@@H](C)C(=O)N[C@H](C(=O)N1C[C@@H](NC(=O)c2ccc(C(=O)N[C@H]3C[C@@H](C(=O)Nc4ccccc4-c4ncccn4)N(C(=O)[C@@H](NC(=O)[C@H](C)NC)C4CCCCC4)C3)cc2)C[C@H]1C(=O)Nc1ccccc1-c1ncccn1)C1CCCCC1 [Compound 45] | 10 to 100
17 | CN[C@@H](C)C(=O)N[C@H](C(=O)N1C[C@@H](NC(=O)c2ccc(C(=O)N[C@H]3C[C@@H](C(=O)N[C@@H]4CCCc5ccccc54)N(C(=O)[C@@H](NC(=O)[C@H](C)NC)C4CCOCC4)C3)cc2)C[C@H]1C(=O)N[C@@H]1CCCc2ccccc21)C1CCOCC1 [Compound 46] | 10 to 100
18 | CN[C@@H](C)C(=O)N[C@H](C(=O)N1C[C@@H](NC(=O)c2ccc(C(=O)N[C@H]3C[C@@H](C(=O)Nc4ccccc4)N(C(=O)[C@@H](NC(=O)[C@H](C)NC)C4CCCCC4)C3)cc2)C[C@H]1C(=O)Nc1ccccc1)C1CCCCC1 [Compound 47] | < 10
19 | CN[C@@H](C)C(=O)N[C@H](C(=O)N1C[C@@H](NC(=O)c2ccc(C(=O)N[C@H]3C[C@@H](C(=O)N(C)[C@H](C)c4ccccc4)N(C(=O)[C@@H](NC(=O)[C@H](C)NC)C4CCCCC4)C3)cc2)C[C@H]1C(=O)N(C)[C@H](C)c1ccccc1)C1CCCCC1 [Compound 48] | 10 to 100
20 | CN[C@@H](C)C(=O)N[C@H](C(=O)N1C[C@@H](NC(=O)c2ccc(C(=O)N[C@H]3C[C@@H](C(=O)Nc4ccccc4-c4ccccc4)N(C(=O)[C@@H](NC(=O)[C@H](C)NC)C4CCCCC4)C3)cc2)C[C@H]1C(=O)Nc1ccccc1-c1ccccc1)C1CCCCC1 [Compound 52] | < 10

Now from value to compound:

Row | EC50 [nM] | Structure (SMILES)
21 | 10 to 100 | CN[C@@H](C)C(=O)N[C@H](C(=O)N1C[C@@H](NC(=O)c2ccc(C(=O)N[C@H]3C[C@@H](C(=O)Nc4cc(C)nn4-c4ccccc4)N(C(=O)[C@@H](NC(=O)[C@H](C)NC)C4CCCCC4)C3)cc2)C[C@H]1C(=O)Nc1cc(C)nn1-c1ccccc1)C1CCCCC1 [Compound 49]
22 | 10 to 100 | CN[C@H](C(=O)N[C@H](C(=O)N1C[C@@H](NC(=O)c2ccc(C(=O)N[C@H]3C[C@@H](C(=O)N[C@@H]4CCCc5ccccc54)N(C(=O)[C@@H](NC(=O)[C@@H](NC)C4CC4)C4CCCCC4)C3)cc2)C[C@H]1C(=O)N[C@@H]1CCCc2ccccc21)C1CCCCC1)C1CC1 [Compound 50]
23 | < 10 | CCN[C@@H](C)C(=O)N[C@H](C(=O)N1C[C@@H](NC(=O)c2ccc(C(=O)N[C@H]3C[C@@H](C(=O)N[C@@H]4CCCc5ccccc54)N(C(=O)[C@@H](NC(=O)[C@H](C)NCC)C4CCCCC4)C3)cc2)C[C@H]1C(=O)N[C@@H]1CCCc2ccccc21)C1CCCCC1 [Compound 53]
24 | < 10 | CN[C@@H](C)C(=O)N[C@H](C(=O)N1C[C@@H](NC(=O)c2cnc(C(=O)N[C@H]3C[C@@H](C(=O)N[C@@H]4CCOc5ccccc54)N(C(=O)[C@@H](NC(=O)[C@H](C)NC)C4CCCCC4)C3)cn2)C[C@H]1C(=O)N[C@@H]1CCOc2ccccc21)C1CCCCC1 [Compound 54]
25 | < 10 | CN[C@@H](C)C(=O)N[C@H](C(=O)N1C[C@@H](NC(=O)c2cnc(C(=O)N[C@H]3C[C@@H](C(=O)N[C@@H]4CCCc5ccccc54)N(C(=O)[C@@H](NC(=O)[C@H](C)NC)C4CCCCC4)C3)cn2)C[C@H]1C(=O)N[C@@H]1CCCc2ccccc21)C1CCCCC1 [Compound 55]
26 | < 10 | CCCN[C@@H](C)C(=O)N[C@H](C(=O)N1C[C@@H](NC(=O)c2ccc(C(=O)N[C@H]3C[C@@H](C(=O)N[C@@H]4CCCc5ccccc54)N(C(=O)[C@@H](NC(=O)[C@H](C)NCCC)C4CCCCC4)C3)cc2)C[C@H]1C(=O)N[C@@H]1CCCc2ccccc21)C1CCCCC1 [Compound 56]
27 | 10 to 100 | CN[C@@H](C)C(=O)N[C@H](C(=O)N1C[C@@H](NC(=O)c2ccc(C(=O)N[C@H]3C[C@@H](C(=O)N[C@H]4CCCc5ccccc54)N(C(=O)[C@@H](NC(=O)[C@H](C)NC)C4CCCCC4)C3)cc2)C[C@H]1C(=O)N[C@H]1CCCc2ccccc21)C1CCCCC1 [Compound 57]
28 | 10 to 100 | CN[C@@H](C)C(=O)N[C@H](C(=O)N1C[C@@H](NC(=O)c2ccc(C(=O)N[C@H]3C[C@@H](C(=O)N[C@H]4CCOc5ccccc54)N(C(=O)[C@@H](NC(=O)[C@H](C)NC)C4CCCCC4)C3)cc2)C[C@H]1C(=O)N[C@H]1CCOc2ccccc21)C1CCCCC1 [Compound 58]
